Two compounds from US8258309B2, “Azapeptide derivatives” (priority 2007, dated 2012) can be followed below.

Like-named read-outs stand apart in the source and are kept apart here. Where only a bound is given, the exact number is not on record here.

Series [1] in a line: Rat pharmacokinetics, intravenous and oral co-dosing of Compound 122 and atazanavir. It counts as in vivo. The following applies: male, Sprague-Dawley, plasma, rats, 1 mg/kg of each. Here is the method:
Rat Pharmacokinetics. […] Then the combo dose was prepared by mixing both by 1:1 to yield a final concentrations at 1 mg/mL for each compound (pH=5-6) for intravenous and oral administration. Male Sprague-Dawley rats (body weight: 170 g to 235 g) were used in this study. […] Blood samples (300 μL) were collected via the retro-orbital vein at pre-dose and 0.083, 0.25, 0.5, 1, 2, 4, 6, 8, 10, 12 and 24 hours post-dose. Blood samples were placed into heparinized eppendorf tubes (evaporated) and then centrifuged at 8000 rpm for 6 minutes. 100 μL aliquots of plasma were transferred to clean Eppendorf tubes and stored with the dose formulation at -20° C. until bioanalysis. For bioanalysis, plasma was thawed and added to it was 20 μL methanol and 500 μL of a 50 ng/ml internal standard solution (quetiapine in methanol). The sample was vortexed, centrifuged at 15,000 rpm for 5 minutes and the supernatant transferred to glass autosampler vials. Analyses of plasma samples were performed using a high performance liquid chromatography/mass spectrometry (HPLC/MS/MS) method. The LC system comprised an Agilent (Agilent Technologies Inc, USA) liquid chromatograph equipped with an isocratic pump (1100 series), an autosampler (1100 series) and a […]). Mass spectrometric analysis was performed using an API3000 (triple-quadrupole) instrument from AB Inc (Canada) with an ESI interface. The data acquisition and control system were created using Analyst 1.4 software from ABI Inc. Following intravenous co-administration of Compound 122 and atazanavir, atazanavir disappeared more rapidly from the blood.

In series [2] the test system is HIV-1RF. Nature of the series: HIV anti-viral activity in CEM-SS cells infected with HIV-1 (XTT). It counts as cell-based. Here is the method: The HIV antiviral activity of compound of the present invention was tested in CEM-SS cells infected with HIV-1. CEM-SS cells were passaged in T-75 flasks in RPMI 1640 medium supplemented with 10% heat inactivated fetal bovine serum, 2 mmol/L L-glutamine, 100 U/mL penicillin and 100 flg/mL streptomycin prior to use in the antiviral assay. On the day preceding the assay, the cells were split 1:2 to assure they were in an exponential growth phase at the time of infection. Total cell and viability quantification was performed using a hemocytometer and Trypan Blue dye exclusion. Cell viability was greater than 95% for the cells to be utilized in the assay. The cells were resuspended at 5×10^4 cells per mL in tissue culture medium and added to the drug-containing microtiter plates in a volume of 50 μL.
The virus used for the assay was the lymphocyte-tropic virus strain HIV-IRF. The virus was obtained from the NIH AIDS Research and Reference Reagent Program and stock virus pools were produced in CEM-SS cells. A pre-titered aliquot of virus was removed from the freezer (−80° C.) and allowed to thaw slowly to room temperature in a biological safety cabinet. Virus was resuspended and diluted into tissue culture medium such that the amount of virus added to each well in a volume of 50 μL was the amount determined to yield 85 to 95% cell killing at 6 days post-infection.
Each plate contains cell control wells (cells only), virus control wells (cells plus virus), compound toxicity wells (cells plus compound only), compound colorimetric control wells (compound only) as well as experimental wells (compound plus cells plus virus). Samples were tested in triplicate with eleven half-log dilutions per compound starting at 0.1 μM of compound. Compounds 104, 120 and 122 were tested, as was atazanavir and AZT. […]
Following incubation at 37° C. in a 5% CO2 incubator, the test plates were stained with the tetrazolium dye XTT (2,3-bis(2-methoxy-4-nitro-5sulfophenyl)-5-[(phenylamino)carbonyl]-2H-tetrazolium hydroxide). XTT-tetrazolium was metabolized by the mitochondrial enzymes of metabolically active cells to a soluble formazan product, allowing rapid quantitative analysis of the inhibition of HIV induced cell killing by anti-HIV test substances. XTT solution was prepared daily as a stock of 1 mg/mL in RPMI 1640. Phenazine methosulfate (PMS) solution was prepared at 0.15 mg/mL in PBS and stored in the dark at −20° C. XTT/PMS stock was prepared immediately before use by adding 40 μL of PMS per mL of XTT solution. Fifty microliters of XTT/PMS was added to each well of the plate and the plate was reincubated for 4 hours at 37° C. Plates were sealed with adhesive plate sealers and shaken gently or inverted several times to mix the soluble formazan product and the plate was read spectrophotometrically at 450/650 nm with a Molecular Devices Vmax plate reader.
Raw data was collected from the Softmax Pro 4.6 software and imported into a Microsoft Excel 2003 spreadsheet for analysis by linear curve fit calculations.
On the technique in general: Tetrazolium dyes change colour on reduction, which living cells bring about.

A short description of series [3]: Microsomal assay: stability in human liver microsomes. Conditions: for half-life at 1 μM: liver microsomes. It counts as in vitro ADME. The method, then:
Microsomal Assay. Human liver microsomes (20 mg/mL, pool of 50 individuals) were obtained from Xenotech LLC (Lenexa, Kans.). The incubation mixtures are prepared as follows. Stock solutions (10 mM) solutions of test Compounds 103, 106, 122 and of atazanavir were prepared in DMSO. The 10 mM stock solutions were diluted to 1 mM in acetonitrile (ACN). […] The microsome-test compound mixtures were added to wells of a 2 mL 96-well deep well polypropylene plate in triplicate. The plate was warmed to 37° C. before initiating the reactions by addition of prewarmed NADPH in 0.1 M potassium phosphate buffer, pH 7.4, containing 3 mM MgCl2. The final reaction mixture composition contained: • Liver Microsomes 0.5 mg/mL • NADPH 2 mM • Potassium Phosphate, pH 7.4 100 mM • Magnesium Chloride 3 mM • Test Compound 1.0 μM. The reaction mixtures were incubated at 37° C. and 50 μL aliquots were removed at 0, 3, 7, 12, 20, and 30 minutes and added to shallow-well 96-well plates which contained 50 μL of ice-cold ACN with internal standard to stop the reactions. The plates were stored at −20° C. for 30 minutes, after which 100 μL of water was added to the wells of the plate before centrifugation to pellet precipitated proteins. Supernatants were transferred to another 96-well plate and analyzed for amounts of parent remaining by LC-MS/MS using an Applied Biosystems API 4000 mass spectrometer. […] Data analysis was performed using Microsoft Excel Software. […] The results are shown in FIGS. 2 and 3 and in Table 3, below: […]
A general note: Liver microsomes are vesicles of endoplasmic reticulum, rich in cytochrome P450 enzymes.

Where [4] appears, read: Human immunodeficiency virus 1, CEM-SS, +0.5 mg/mL AAGP.
Setting [5] is: Human immunodeficiency virus 1, CEM-SS, +10 mg/mL HAS.
Setting [6] is: Human immunodeficiency virus 1, CEM-SS, +AAGP + HSA.
[7] abbreviates: Human immunodeficiency virus 1, CEM-SS, No Serum Protein Added (cell culture medium).
[8] abbreviates: human, pH 7.4, human liver microsomes 0.5 mg/mL, 1.0 μM test compound, first run (Table 2), read-out: T1/2 ± SD.
The mark [9] stands for this setting: human, pH 7.4, human liver microsomes, repeated assay (Table 3), read-out: t1/2 (min) Avg ± SD (n = 3).

The AUC is the area under the concentration-time curve, a measure of exposure. A low value points to less exposure. What is called Cmax is the maximum level reached in the sampled fluid or tissue. A word on the EC50: it is the midpoint of the concentration-response curve. Take `COC(=O)N[C@H](C(=O)N[C@@H](Cc1ccccc1)[C@@H](O)CN(Cc1ccc(-c2ccccn2)cc1)NC(=O)[C@@H](NC(=O)OC)C(C)(C)C)C(C)(C)C` [Atazanavir, atazanavir, reference compound]: the results for the AUC in series [1] (intravenous co-dosing) and in series [1] (oral co-dosing) were 475 ± 15.9 ng·h/mL and 86 ± 51.2 ng·h/mL, respectively. In addition, the half-life in series [1] (intravenous co-dosing) was 13.8 ± 0.6 min; in series [1] (oral co-dosing), 19.2 ± 3.6 min. The compound further registered a Cmax in series [1] (oral co-dosing) of 109 ± 67.2 ng/mL. Also, the EC50 stood at 4 nM in series [2] (setting [4]), 4 nM in series [2] (setting [5]), 8 nM in series [2] (setting [6]) and 1 nM in series [2] (setting [7]). Moreover, the half-life at 1 μM turned out to be 18.6 ± 2.99 min in series [3] (setting [8]) and 18.8 ± 0.6 min in series [3] (setting [9]).

Turning to `[2H]C([2H])([2H])OC(=O)N[C@H](C(=O)N[C@@H](Cc1ccccc1)[C@@H](O)CN(Cc1ccc(-c2ccccn2)cc1)NC(=O)[C@@H](NC(=O)OC([2H])([2H])[2H])C(C([2H])([2H])[2H])(C([2H])([2H])[2H])C([2H])([2H])[2H])C(C([2H])([2H])[2H])(C([2H])([2H])[2H])C([2H])([2H])[2H]` [Compound 122, 1,14-Di(methyl-d3)(3S,8S,9S,12S)-3,12-bis[(1,1-dimethylethyl)-d9]-8-hydroxy-4,11-dioxo-9-(phenylmethyl)-6-[[4-(2-pyridinyl)phenyl]methyl]-2,5,6,10,13-pentaazatetradecanedioate], the area under the curve (AUC) was found to be 503 ± 25.1 ng·h/mL in series [1] (intravenous co-dosing) and 156 ± 70.6 ng·h/mL in series [1] (oral co-dosing). For the same compound, the half-life is 15 ± 1.2 min in series [1] (intravenous co-dosing) and 27.6 ± 9.6 min in series [1] (oral co-dosing). In series [1] (oral co-dosing), this compound gave a peak concentration (Cmax) of 183 ± 113 ng/mL. Further, the “fold less potent in the presence of HSA than in cell culture medium alone” value in series [2] (10 mg/mL HSA versus cell culture medium) is given as “two- to greater than three-fold less potent”. Besides, the concentration giving a half-maximal response (EC50) in series [2] (+10 mg/mL HAS) is 0.8 nM; in series [2] (setting [4]) it was 2 nM; in series [2] (setting [5]), 0.9 nM; in series [2] (setting [6]), 6 nM; in series [2] (setting [7]), below 0.4 nM; in series [2] (No Serum Protein Added (cell culture medium)), 0.4 nM. In series [3] (human liver microsomes, first run), the “half-life as compared to atazanavir” value is recorded as “increased half-life”. Further, the “increase in half-life as compared to atazanavir” value in series [3] (human, 1 μM, pH 7.4) was around 67%. For the same compound, the half-life at 1 μM in series [3] (setting [8]) was 35.4 ± 1.68 min; in series [3] (setting [9]) it was 28.3 ± 0.3 min.
